Assay results taken from ChEMBL document CHEMBL3792350, “Discovery of a Potent and Orally Efficacious TGR5 Receptor Agonist” (ACS Med Chem Lett, 2016).

Legend:
Type in all cases: ADME, organism-based
[1] = Clearance in C57Bl/6 mouse at 1 mg/kg, iv as bolus dose by LC-MS/MS analysis; conditions: in vivo
[2] = Cmax in C57Bl/6 mouse at 3 mg/kg administered via oral gavage by LC-MS/MS analysis; parameters: dose 3 mg/kg, route oral; conditions: in vivo
[3] = Oral bioavailability in C57Bl/6 mouse at 3 mg/kg administered via oral gavage by LC-MS/MS analysis; conditions: in vivo
[4] = AUC in C57Bl/6 mouse at 3 mg/kg administered via oral gavage by LC-MS/MS analysis; conditions: in vivo
[5] = Half life in C57Bl/6 mouse at 1 mg/kg, iv as bolus dose by LC-MS/MS analysis; conditions: in vivo
[6] = Volume of distribution at steady state in C57Bl/6 mouse at 1 mg/kg, iv as bolus dose by LC-MS/MS analysis; conditions: in vivo, read-out: Vdss
[7] = Volume of distribution at steady state in Sprague-Dawley rat at 1 mg/kg, iv as bolus dose by LC-MS/MS analysis; conditions: in vivo, read-out: Vdss
[8] = Clearance in Sprague-Dawley rat at 1 mg/kg, iv as bolus dose by LC-MS/MS analysis; conditions: in vivo
[9] = AUC in Sprague-Dawley rat at 3 mg/kg administered via oral gavage by LC-MS/MS analysis; conditions: in vivo
[10] = Half life in Sprague-Dawley rat at 1 mg/kg, iv as bolus dose by LC-MS/MS analysis; conditions: in vivo
[11] = Cmax in Sprague-Dawley rat at 3 mg/kg administered via oral gavage by LC-MS/MS analysis; parameters: dose 3 mg/kg, route oral; conditions: in vivo
Mus musculus = test: fAUC in po dosed diet-induced obese C57 mouse administered as single dose 15 mins; conditions: in vivo, 0.25 h
[12] = Oral bioavailability in Sprague-Dawley rat at 3 mg/kg administered via oral gavage by LC-MS/MS analysis; conditions: in vivo

| clearance [1] [mL/min/kg] | Cmax [2] [ng/mL] | bioavailability [3] [%] | AUC [4] [ng·h/mL] | half-life [5] [min] | Vd [6] [L/kg] | Vd [7] [L/kg] | clearance [8] [mL/min/kg] | AUC [9] [ng·h/mL] | half-life [10] [min] | Cmax [11] [ng/mL] | fAUC (Mus musculus) [ng·h/mL] | bioavailability [12] [%] | SMILES |
| --- | --- | --- | --- | --- | --- | --- | --- | --- | --- | --- | --- | --- | --- |
| 45.5 | 51.8 | 7 | 73.5 | 45.6 | 1.54 | – | – | – | – | – | – | – | COc1ccc(C(C)(C)c2cnc(SCc3c(F)cccc3Cl)n2-c2ccc(F)cc2)cc1OC |
| 47.3 | 789 | 71 | 754 | 19.8 | 0.83 | 2.05 | 79.7 | 207 | 19.2 | 148 | 231.38 | 31 | COc1ccc(C(C)(C)c2cnc(SCCOc3ccc(-n4ccnc4)cc3)n2-c2ccc(F)cc2)cc1OC |
